For one assay, the target named is T1, Calpain I (Homo sapiens, UniProt P07384).
T1 construct: Calpain I was purified from human red blood cells; from tissue; host or cells: human red blood cells (packed, outdated)
T1 sequence (P07384 1-714): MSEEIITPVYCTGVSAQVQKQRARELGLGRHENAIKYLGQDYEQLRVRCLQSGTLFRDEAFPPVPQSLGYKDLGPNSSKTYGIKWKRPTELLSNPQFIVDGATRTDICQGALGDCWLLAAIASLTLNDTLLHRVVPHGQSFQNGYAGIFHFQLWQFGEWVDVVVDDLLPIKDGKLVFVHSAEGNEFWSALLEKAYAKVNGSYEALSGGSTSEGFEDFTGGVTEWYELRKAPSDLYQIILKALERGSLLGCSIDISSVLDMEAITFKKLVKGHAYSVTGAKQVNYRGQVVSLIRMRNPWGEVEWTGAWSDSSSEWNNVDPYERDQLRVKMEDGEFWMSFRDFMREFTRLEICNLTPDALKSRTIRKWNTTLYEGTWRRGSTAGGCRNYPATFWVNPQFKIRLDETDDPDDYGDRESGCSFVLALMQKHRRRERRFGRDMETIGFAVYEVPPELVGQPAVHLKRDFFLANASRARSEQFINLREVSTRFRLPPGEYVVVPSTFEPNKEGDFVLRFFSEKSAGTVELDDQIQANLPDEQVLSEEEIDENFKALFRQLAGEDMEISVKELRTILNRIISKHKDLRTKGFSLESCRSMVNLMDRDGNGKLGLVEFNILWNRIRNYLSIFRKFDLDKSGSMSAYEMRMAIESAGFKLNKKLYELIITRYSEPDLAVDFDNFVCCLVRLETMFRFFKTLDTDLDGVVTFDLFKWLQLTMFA
T1 sequence (P04632 1-268 partner): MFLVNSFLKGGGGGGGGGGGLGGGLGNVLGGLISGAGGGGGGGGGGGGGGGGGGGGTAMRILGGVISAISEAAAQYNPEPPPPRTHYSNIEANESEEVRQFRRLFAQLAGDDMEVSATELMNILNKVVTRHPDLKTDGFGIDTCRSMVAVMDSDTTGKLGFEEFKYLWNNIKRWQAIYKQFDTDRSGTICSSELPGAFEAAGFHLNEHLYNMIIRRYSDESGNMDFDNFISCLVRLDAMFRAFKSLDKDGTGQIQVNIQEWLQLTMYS
Nature of the assay: Inhibition and rate of inactivation of calpain I (Succ-Leu-Tyr-MNA hydrolysis). In kind it is biochemical. The settings on record: mean of three or more independent analyses, corrected for substrate, k2 = kapp(1+[S]/Km), read-out: k2 (second order rate constant of inactivation), A = Calpain I. As to the method: To evaluate inhibitory activity of our compounds, stocks (40 times concentrated) of each compound to be tested were prepared in 100% anhydrous dimethyl sulfoxide (DMSO) and 5 μl of each inhibitor preparation was aliquoted into each of three wells of a 96 well plate. Calpain I was purified from human red blood cells using a modification of the method described by Lee, W. J. et al. (Biochem. Internatl. (1990)22(1): 163-171). Briefly, 3 units of packed outdated red blood cells were washed 3× by repeated centrifugation at 500 rpm for 10 minutes through 900 mls of 0.9% NaCl. Cells were lysed in 20 mM Tris/1 mM EDTA/1 mM EGTA/5 mM mercaptoethanol (Buffer A) and centrifuged for 1 hour at 12,000 rpm in a GSA rotor using a Sorval centrifuge. The supernatant was collected and applied to a DEAE-sepharose FF column equilibrated in Buffer A+25 mM NaCl. After washing the column in Buffer A+25 mM NaCl, the bound protein was eluted at 117 ml/hr with a 25 mM to 150 mM NaCl linear gradient in Buffer A collecting 200, 10 mL fractions. Two μl of every fifth fraction was applied to nitrocelluose using a dot blot apparatus and calpain containing fractions identified by Western analysis. For detection of calpain, nitrocellulose sheets were first blocked in 5% Blotto (5% Carnation instant milk/10 mM Tris/[…]150 mM NaCl) for 30 minutes, followed by incubation for 1 hour in antibody directed against Calpain I (rabbit anti-human calpain I polyclonal sera, 1:1000 dilution in 5% Blotto). After three 5 minutes washes in 10 mM Tris/150 mM NaCl/0.05% Tween 20 the nitrocellulose was incubated for 1 hour in secondary alkaline phosphatase conjugated antibody (Biorad Cat#170-6518 1:2000 in 5% Blotto). After three 5 minutes washes in 10 mM Tris/150 mM NaCl/0.05% Tween 20 and 1 wash in 10 mM Tris/150 mM NaCl the nitrocellulose was incubated for up to 2 hours in a colorimetric substrate solution (Biorad Alkaline Phosphatase Substrate conjugate kit, cat#170-6432). The reaction was stopped by washing in water. After fractions containing calpain, and those in between, were pooled, solid ammonium sulfate was added to achieve a 30% solution and the mixture stirred for 1 hour at 4° C. Following collection of the precipitate by centrifugation for 1 hour at 4° C. at 12K rpm in a GSA rotor, the supernatant was collected and brought to 45% in ammonium sulfate. After stirring for 1 hour at 4° C., centrifugation was repeated. The supernatant was discarded and the precipitate resuspended in approximately 7 mls and dialyzed overnight at 4° C. against Buffer A+50 mM NaCl. The sample was then applied to a S300 gel filtration column preequilibrated in Buffer A+50 mM NaCl, washed and eluted at a flow rate of 20 ml/hr, collecting 200, 4 ml fractions. The peak of calpain was determined by assaying aliquots of every fifth fraction for enzyme activity monitored by the hydrolysis of a fluorogenic dipeptide substrate as described below. The peak fractions were pooled and the enzyme preparation used to test compounds for inhibitory activity. As an alternate to enzyme isolated from tissue sources, recombinant human calpain I has also been used to monitor compounds for inhibitory activity.
The foregoing enzyme preparation was diluted into assay buffer (i.e., 50 mM Tris, 50 mM NaCl, 1 mM EDTA, 1 mM EGTA, and 5 mM β-mercaptoethanol, pH 7.5 including 0.2 mM Succ-Leu-Tyr-MNA) and 175 μl aliquoted into the same wells containing the independent inhibitor stocks as well as to positive control wells containing 5 μl DMSO, but no compound. To start the reaction, 20 μl of 50 mM CaCl2 in assay buffer was added to all wells of the plate, excepting three, which were used as background signal baseline controls. Substrate hydrolysis was monitored every 5 minutes for a total of 30 minutes using Flouroskan II (ex=340 nm; em=430 nm). Substrate hydrolysis in the absence of inhibitor was linear for up to 15 minutes. […]

Another assay has as its target T2, Cathepsin B (Homo sapiens, UniProt P07858).
T2 construct: purchased Calbiochem 219364
Nature of the assay: Inhibition and rate of inactivation of cathepsin B (Cbz-Phe-Arg-AMC hydrolysis). In kind it is biochemical. The settings on record: pH 6.0, 0.1 mM substrate, read-out: k2 (second order rate constant of inactivation), C = Cathepsin B. As to the method:
Additionally, the order of reagents added to the plate was altered because both enzymes are constitutively active. Following inhibitor addition to the plates appropriate 2× concentrated stock dilutions of the enzyme preparations were made in assay buffer and 100 ul added to each well. The assay was initiated by addition of 100 ul of 2× concentrated stock dilution of substrate in assay buffer. Substrate hydrolysis was monitored using a Fluroskan II (ex=390 nm; em=460 nm).
Inhibition of enzyme activity was calculated as the percent decrease in the rate of substrate hydrolysis in the presence of inhibitor (.upsilon.i) relative to the rate in its absence (.upsilon.o). Comparison between .upsilon.o and .upsilon.i was made within the linear range for substrate hydrolysis. For screening, compounds were tested at 10 μM. Compounds having ≥50% inhibition at 10 μM were considered active. Apparent second order rate constants were determined from analysis of reaction progress curves under pseudo-first order conditions. Each determination represents the mean of three or more independent single cuvette analyses continually monitored via a Perkin-Elmer LS50B spectrofluorimeter. The rate of inhibition of hydrolysis was obtained by fitting the curve to the exponential equation (1):
y=Ae^-k.spsb.obs·t +B (1)
where y (Pt) is the product formed at time t. A and B are constants. A, the amplitude of the reaction, is given by [Po -P.varies. ] and B (=P.varies.) is the maximal product formed when the reaction is […]. This was corrected for the presence of equation (2): […]

For `CC(C)C[C@H](NC(=O)OCc1ccccc1)C(=O)N[C@@H](Cc1ccccc1)C(=O)COn1nnc2cc(Cl)ccc21` [Example 17, 1-[N-[N-Benzyloxycarbonyl-L-leucyl]-3S-4-phenyl-3-amino-2-oxybutyloxy]-5'-chlorobenzotriazole], on Calpain I, the kinact/KI was 164000 M⁻¹ s⁻¹.
Same read-out and setting: next, `CC(C)C[C@H](NC(=O)OCc1ccccc1)C(=O)N[C@@H](Cc1ccccc1)C(=O)COn1nnc2c(Cl)c(Cl)c(Cl)c(Cl)c21` [Example 20, 1-[N-[N-Benzyloxycarbonyl-L-leucyl]-3S-4-phenyl-3-amino-2-oxybutyloxy]-4',5'6',7'-tetrachlorobenzotriazole]: 1300 M⁻¹ s⁻¹; `COc1cc2nnn(OCC(=O)[C@H](Cc3ccccc3)NC(=O)[C@H](CC(C)C)NC(=O)OCc3ccccc3)c(=O)c2cc1OC` [Example 29, 1-[N-[N-Benzyloxycarbonyl-L-leucyl]-3S-4-phenyl-3-amino-2-oxobutyloxy]-3-(6',7'-dimethoxy)benzotriazin-4-one]: 171000 M⁻¹ s⁻¹; `CC(C)C[C@H](NC(=O)OCc1ccccc1)C(=O)N[C@@H](Cc1ccccc1)C(=O)COn1nnc2c(Cl)c(Cl)ccc21` [Example 23, 1-[N-[N-Benzyloxycarbonyl-L-leucyl]-3S-4-phenyl-3-amino-2-oxybutyloxy]-4',5'-dichlorobenzotriazole]: 64000 M⁻¹ s⁻¹.
As to `CC(C)C[C@H](NC(=O)OCc1ccccc1)C(=O)N[C@@H](Cc1ccccc1)C(=O)COn1nnc2cc(Cl)c(Cl)cc21` [Example 18, 1-[N-[N-Benzyloxycarbonyl-L-leucyl]-3S-4-phenyl-3-amino-2-oxybutyloxy]-5',6'-dichlorobenzotriazole], the kinact/KI at Calpain I was 65000 M⁻¹ s⁻¹; at Cathepsin B, 115000 M⁻¹ s⁻¹.
`CC(C)C[C@H](NC(=O)OCc1ccccc1)C(=O)N[C@@H](Cc1ccccc1)C(=O)COn1nnc2ccc(Cl)cc2c1=O` [Example 30, 1-[N-[N-Benzyloxycarbonyl-L-leucyl]-3S-4-phenyl-3-amino-2-oxobutyloxy]-3-(6'-chloro)benzotriazin-4-one]: the kinact/KI on Calpain I was determined as 180000 M⁻¹ s⁻¹.
On the same count and under the same terms, next, `CC(C)C[C@H](NC(=O)OCc1ccccc1)C(=O)N[C@@H](Cc1ccccc1)C(=O)COn1nnc2c(Cl)cccc21` [Example 14, 1-[N-[N-Benzyloxycarbonyl-L-leucyl]-3S-4-phenyl-3-amino-2-oxybutyloxy]-4'-chlorobenzotriazole]: 157000 M⁻¹ s⁻¹; `CC(C)C[C@H](NC(=O)[C@H](CC(C)C)NC(=O)OCc1ccccc1)C(=O)COn1nnc2ccccc2c1=O` [Example 31, 1-[N-[N-Benzyloxycarbonyl-L-leucyl]-3S-5-methyl-3-amino-2-oxohexyloxy]-3-benzotriazin-4-one]: 46000 M⁻¹ s⁻¹.
As to `Cc1cc2c(cc1Cl)nnn2OCC(=O)[C@H](Cc1ccccc1)NC(=O)[C@H](CC(C)C)NC(=O)OCc1ccccc1` [Example 13, 1-[N-[N-Benzyloxycarbonyl-L-leucyl]-3S-4-phenyl-3-amino-2-oxobutyloxy]-5'-chloro-6'methylbenzotriazole], the kinact/KI came out at 116000 M⁻¹ s⁻¹ on Calpain I and 29000 M⁻¹ s⁻¹ at Cathepsin B.
The matching figures for `CCc1cc2c(cc1Cl)nnn2OCC(=O)[C@H](Cc1ccccc1)NC(=O)[C@H](CC(C)C)NC(=O)OCc1ccccc1` [Example 24, 1-[N-[N-Benzyloxycarbonyl-L-leucyl]-3S-4-phenyl-3-amino-2-oxybutyloxy]-5'-chloro-6'-ethylbenzotriazole]: 84000 M⁻¹ s⁻¹ and 30000 M⁻¹ s⁻¹.
Take `Cc1ccc2c(c1)nnn2OCC(=O)[C@H](Cc1ccccc1)NC(=O)[C@H](CC(C)C)NC(=O)OCc1ccccc1` [Example 27, 1-[N-[N-Benzyloxycarbonyl-L-leucyl]-3S-4-phenyl-3-amino-2-oxobutyloxy]-5'-methylbenzotriazole]: the kinact/KI on Calpain I came out at 230000 M⁻¹ s⁻¹.
Same read-out and setting: next, `CC[C@H](C(=O)C[C@@H](CC(C)C)C(=O)N[C@@H](Cc1ccccc1)C(=O)COn1nnc2ccccc21)c1ccccc1` [Example 46, 1-[N-[2R-(2-methylpropyl)-1,4-dioxo-5S-phenylheptan-1-yl]-3S-3-amino-2-oxo-4-phenylbutyloxy]benzotriazole]: 3000 M⁻¹ s⁻¹.
As to `CC(C)C[C@H](NC(=O)OCc1ccccc1)C(=O)N[C@@H](Cc1ccccc1)C(=O)COn1nnc2c(Cl)cc(Cl)c(Cl)c21` [Example 21, 1-[N-[N-Benzyloxycarbonyl-L-leucyl]-3S-4-phenyl-3-amino-2-oxybutyloxy]-4',6',7'-trichlorobenzotriazole], the kinact/KI was 1800 M⁻¹ s⁻¹ at Calpain I and 10000 M⁻¹ s⁻¹ at Cathepsin B.
On to `Cc1ccc2nnn(OCC(=O)[C@H](Cc3ccccc3)NC(=O)[C@H](CC(C)C)NC(=O)OCc3ccccc3)c2c1` [Example 26, 1-[N-[N-Benzyloxycarbonyl-L-leucyl]-3S-4-phenyl-3-amino-2-oxobutyloxy]-6'-methylbenzotriazole], for which, on Calpain I, the kinact/KI is 112000 M⁻¹ s⁻¹.

For the origin of these results see patent US5658906A, “Cysteine protease and serine protease inhibitors” (Cephalon, Inc., priority 1996, dated 1997).
